{"source": "patent US8784793B2", "about": "“Conformable solvent-based bandage and coating material” (Rochal Industries LLP, priority 2005, dated 2014)", "test": "Rate of polymerization of BCA on a glass slide as a function of HMDS concentration", "format": "physicochemical", "protocol": "Additionally, a test was conducted for the rate of polymerization as a function of solvent concentration in order to assess the time interval for heat generation upon the polymerization of the cyanoacrylate monomer. The mixture included n-butyl cyanoacrylate in the presence and absence of hexamethyldisiloxane. […] Utilizing a glass slide containing BCA with no HMDS as the control, polymerization of this neat system occurred in 25 seconds. When a 20% BCA solution in HMDS was studied, utilizing the same amount of BCA as in the control, polymerization occurred in 40 seconds, and decreased the polymerization rate by 60%. […] Thus, the addition of the non-stinging, non-irritating volatile hexamethyldisiloxane solvent caused polymerization of the cyanoacrylate to occur at a slower rate than that reported by U.S. Pat. No. 6,010,714, allowing the heat of polymerization to be more evenly dissipated. […] The use of the HMDS would thus facilitate rapid coverage of a wound site."}
{"smiles": "C=C(C#N)C(=O)OCCCC", "note": "[BCA, n-Butyl cyanoacrylate]", "values": [{"measurement": "flow over the glass surface", "value": "tended to bead"}, {"measurement": "time in which polymerization occurred", "setting": "same amount of BCA as control", "value": 25, "unit": "s"}]}
